# Test results taken from patent US5250679A, “Nonpeptidyl platelet aggregation inhibitors having specificity for the GPIIb III receptor” (Genentech, Inc., priority 1992, dated 1993).
# Where a name gives a salt, the structure may show the parent alone. Read-outs that look alike come from different tables or passages of the source.
# Molecular target: T1, GP IIb IIIa (Homo sapiens, UniProt P05106+P08514)
# T1 construct: from tissue; host or cells: outdated human platelets
# Experiment: Fibrinogen-GP IIb IIIa Receptor ELISA Binding Assay (Fg/IIbIIIa)
# Description: Briefly, microtiter plates are coated with fibrinogen (10 mg/ml) and then blocked with TACTS buffer containing 0.5% bovine serum albumin (BSA). […] After another wash a goat anti-mouse IgG conjugated to horseradish peroxidase is added. […] The reaction is stopped with 1N sulfuric acid and the absorbance at 492 nm is recorded. […] Outdated human platelets are washed 3 times with 10 mM tris-HCl, 150 mM NaCl (TBS), 1 mM EDTA, pH 7.5, and centrifuged at 2000×g to pellet cells. […] The supernatant fraction is collected and the supernatant is loaded onto a concanavalin-A column, previously equilibrated in TBS, 1 mM Ca2 Cl2, 0.1% Triton, 0.05% NaN3 and eluted with 0.2M a-methylmannoside. Fractions are pooled and loaded onto a heparin-agarose column. The flowthrough is collected and concentrated on an Amicon YM 30 filter to a volume of approximately 5-10 ml. The concentrate is then applied to an S-300 column (500 ml) and 6 ml fractions are collected. The GP IIb IIIa containing fractions are collected, pooled, and stored at -80° C. […] The precipitate is spun down in appropriate size bottles at 2000×g. The supernatant is decanted and the precipitate resuspended in 150 mM NaCl (approximately 50% of the original volume). […] The suspension is spun down and the precipitate is resuspended in Tris-saline in a minimal volume (approximately 5% of the original volume). Any remaining insoluble material is spun down at 2000 rpm in a Sorval type centrifuge and the fibrinogen supernatant is decanted and dialyzed overnight at 4° C. against Tris-saline. Characterization of the fibrinogen is by the Bradford protein assay, SDS-PAGE, and/or Western blotting using well known standard procedures. Briefly, 96 well plates are coated (Type Nunc 1 MaxisorpTM) with 10 mg/ml purified fibrinogen ([…]), and allowed to stand overnight at 4° C. […] The plates are again washed three times with PBS/Tween and then […] of sample in TNCNT is added. The mixture is incubated for 15 minutes at room temperature on a plate shaker. […] Fifty ml of this diluted GP IIb IIIa is then added to each well and incubated on a plate shaker at room temperature. After one hour, the plates are washed four times with PBS/Tween and 100 ml of a polyclonal or monoclonal antibody specific for GP IIIa such as AP3 (1 mg/ml) (See e.g. […] After a one hour incubation at room temperature on a plate shaker, the samples are washed 4 times with PBS/Tween. […] The color develops within about 3 to 20 minutes and the reaction is stopped with 100 ml 1M H2 SO4. The optical density at 492 nm vs 405 nm is recorded and IC50 values are determined.
# [1] = Example 29, Cmpd # 1-105, read-out: IC50 Fg/IIbI
# [2] = Examples 29 and 30, Cmpd # tables, read-out: IC50 (μM) Fg/IIbIIIa
# T1 sequence (P08514 32-887 limits assumed): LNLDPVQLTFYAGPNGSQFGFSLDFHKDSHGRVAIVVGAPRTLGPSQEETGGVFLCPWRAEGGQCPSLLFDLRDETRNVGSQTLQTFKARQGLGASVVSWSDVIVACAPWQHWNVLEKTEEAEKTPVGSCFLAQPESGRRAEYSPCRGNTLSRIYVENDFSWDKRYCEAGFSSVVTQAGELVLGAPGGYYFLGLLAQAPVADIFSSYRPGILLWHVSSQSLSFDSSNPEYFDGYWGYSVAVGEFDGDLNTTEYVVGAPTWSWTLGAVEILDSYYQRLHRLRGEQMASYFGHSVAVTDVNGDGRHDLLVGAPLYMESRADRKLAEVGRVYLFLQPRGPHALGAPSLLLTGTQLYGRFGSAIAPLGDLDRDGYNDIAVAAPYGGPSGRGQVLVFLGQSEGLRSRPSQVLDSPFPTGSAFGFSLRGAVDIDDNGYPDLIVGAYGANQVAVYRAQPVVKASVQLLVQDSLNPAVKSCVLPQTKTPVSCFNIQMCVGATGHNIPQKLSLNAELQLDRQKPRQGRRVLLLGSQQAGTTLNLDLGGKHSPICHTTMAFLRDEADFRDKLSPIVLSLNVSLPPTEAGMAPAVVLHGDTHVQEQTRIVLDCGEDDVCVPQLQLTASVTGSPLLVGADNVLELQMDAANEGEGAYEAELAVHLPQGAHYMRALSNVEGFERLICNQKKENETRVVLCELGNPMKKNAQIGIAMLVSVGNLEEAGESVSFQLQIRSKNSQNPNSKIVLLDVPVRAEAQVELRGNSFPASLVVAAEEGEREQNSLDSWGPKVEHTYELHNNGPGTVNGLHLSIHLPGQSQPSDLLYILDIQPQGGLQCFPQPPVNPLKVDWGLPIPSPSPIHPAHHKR
# T1 sequence (P08514 891-1039 partner limits assumed): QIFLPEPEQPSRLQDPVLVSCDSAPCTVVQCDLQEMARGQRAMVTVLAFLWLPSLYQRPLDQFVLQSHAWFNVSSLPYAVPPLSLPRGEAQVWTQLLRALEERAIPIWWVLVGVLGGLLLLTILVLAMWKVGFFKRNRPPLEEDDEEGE
# T1 sequence (P05106 27-788): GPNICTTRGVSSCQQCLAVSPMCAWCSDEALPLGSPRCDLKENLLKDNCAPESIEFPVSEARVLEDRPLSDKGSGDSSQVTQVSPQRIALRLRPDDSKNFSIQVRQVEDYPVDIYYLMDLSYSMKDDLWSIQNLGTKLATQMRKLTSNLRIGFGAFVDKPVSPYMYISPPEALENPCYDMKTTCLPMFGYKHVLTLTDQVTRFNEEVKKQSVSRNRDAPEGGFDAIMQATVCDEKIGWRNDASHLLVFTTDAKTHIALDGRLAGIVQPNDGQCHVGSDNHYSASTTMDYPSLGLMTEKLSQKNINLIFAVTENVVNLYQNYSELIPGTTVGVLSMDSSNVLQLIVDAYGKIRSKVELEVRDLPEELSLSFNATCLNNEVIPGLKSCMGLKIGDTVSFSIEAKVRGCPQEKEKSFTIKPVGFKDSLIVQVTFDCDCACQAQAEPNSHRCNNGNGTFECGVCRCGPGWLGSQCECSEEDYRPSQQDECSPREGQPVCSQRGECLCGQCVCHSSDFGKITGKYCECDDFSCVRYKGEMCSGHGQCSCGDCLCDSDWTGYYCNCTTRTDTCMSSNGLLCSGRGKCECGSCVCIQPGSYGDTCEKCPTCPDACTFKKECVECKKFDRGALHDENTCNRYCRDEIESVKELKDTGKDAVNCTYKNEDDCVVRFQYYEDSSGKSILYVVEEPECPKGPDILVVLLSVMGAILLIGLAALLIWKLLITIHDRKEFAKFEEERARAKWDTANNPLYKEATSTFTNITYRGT
Structure (SMILES),IC50 [1],IC50 [2]
"NCCCCCCc1ccc2c(c1)C(=O)N(CCC(=O)O)CC(=O)N2Cc1ccc(F)cc1F [Cmpd 103, 1-(2,4-difluorophenyl)methyl-4-(2-carboxyethyl)-7-(6-aminohexyl)-3,4-dihydro-1H-1,4-benzodiazapine-2,5-dione]",0.021 µM,–
"NCCCCCc1ccc2c(c1)C(=O)N(CCC(=O)O)CC(=O)N2Cc1cccc(Oc2ccccc2)c1 [Cmpd 95, 1-(m-phenoxybenzyl)-4-(2-carboxyethyl)-7-(5-aminopentyl)-3,4-dihydro-1H-1,4-benzodiazepine-2,5-dione trifluoroacetate]",0.108 µM,–
N=C(N)NCCCCCc1ccc2c(c1)C(=O)N(CCC(=O)O)CC(=O)N2CCCCC(=O)O [Cmpd 131],–,0.014 µM
N=C(N)NCCCCCCCc1ccc2c(c1)C(=O)N(CCC(=O)O)CC(=O)N2Cc1ccc(Cl)cc1 [Cmpd 67],0.2 µM,–
NCCCCCc1ccc2c(c1)C(=O)N(CCC(=O)O)CC(=O)N2CCCCC(=O)O [Cmpd 132],–,0.931 µM
"NCCCCCCc1ccc2c(c1)C(=O)N(CCC(=O)O)CC(=O)N2Cc1ccc(C(=O)O)cc1 [Cmpd 135, 1-(4-carboxyphenyl)methyl-4-(2-carboxyethyl)-7-(6-aminohexyl)-3,4-dihydro-1H-1,4-benzodiazapine-2,5-dione]",–,0.008 µM
CN1C(=O)CN(CCC(=O)O)C(=O)c2cc(CCCCCCN)ccc21 [Cmpd 39],0.07 µM,–
NCCCCC#Cc1cccc(C(=O)NCCC(=O)O)c1 [Cmpd 163],–,2.7 µM
N=C(N)NCCCCCCc1ccc2c(c1)C(=O)N(CCC(=O)O)CC(=O)N2Cc1ccc(F)cc1F [Cmpd 104],0.038 µM,–
CN1C(=O)CN(C(CC(=O)O)c2ccccc2)C(=O)c2cc(C#CCCCCNC(=N)N)ccc21 (centres unmarked) [Cmpd 54],0.1 µM,–
"CC(CC(=O)O)N1CC(=O)N(C)c2ccc(C#CCCCN)cc2C1=O (centres unmarked) [Cmpd 37, 1-methyl-4-(2-carboxy-1-methylethyl)-7-(5-amino-1-pentyne)-3,4-dihydro-1H-1,4-benzodiazepine-2,5-dione trifluroacetate]",0.061 µM,–
NCCCCCc1ccc2c(c1)C(=O)N(CCC(=O)O)CCC2 [Cmpd 155],–,> 100 µM
"N=C(N)NCCCCCc1ccc2c(c1)C(=O)N(CCC(=O)O)CC(=O)N2Cc1ccc(C(F)(F)F)cc1 [Cmpd 93, 1-(p-trifluoromethylbenzyl)-4-(2-carboxyethyl)-7-(5-guanidinopentyl)-3,4-dihydro-1H-1,4-benzodiazepine-2,5-dione trifluoroacetate]",0.014 µM,–
CN1C(=O)C2CCC(CC(=O)O)N2C(=O)c2cc(CCCNC(=N)N)ccc21 (centres unmarked) [Cmpd 16],> 100 µM,–
NCCCC#Cc1ccc2c(c1)C(=O)N(CCC(=O)O)CC(Cc1ccccc1)O2 (centres unmarked) [Cmpd 148],–,5.9 µM
CC1C(=O)N(C)c2ccc(C#CCN)cc2C(=O)N1CCC(=O)O (centres unmarked) [Cmpd 9],70 µM,–
NCCCCCCc1ccc2c(c1)C(=O)N(CCC(=O)O)CC(=O)N2Cc1ccc(NC(=O)CCN)cc1 [Cmpd 118],–,0.019 µM
NCCCCCc1ccc2c(c1)C(=O)N(CCC(=O)O)CC(=O)N2Cc1ccc(F)cc1F [Cmpd 101],0.2 µM,–
NCCCC#Cc1ccc2c(c1)C(=O)N(CCC(=O)O)CC(=O)N2 [Cmpd 31],1.43 µM,–

Structure (SMILES),IC50 [1],IC50 [2]
NCCCC#Cc1cccc(C(=O)NCCC(=O)O)c1 [Cmpd 161],–,9 µM
N=C(N)NCCCCCc1ccc2c(c1)C(=O)N(CCC(=O)O)CCO2 [Cmpd 147],–,3 µM
N=C(N)NCCCCCCc1ccc2c(c1)C(=O)N(CCC(=O)O)CC(=O)N2Cc1ccc(Cl)cc1 [Cmpd 65],0.05 µM,–
"NCCOc1ccc(-c2ccc3c(c2)C(=O)N(CCC(=O)O)CC(Cc2ccccc2)O3)cc1 (centres unmarked) [Cmpd 150, trifluoroacetate]",–,0.119 µM
N=C(N)NCCCC#Cc1ccc2c(c1)C(=O)N(CCC(=O)O)CCO2 [Cmpd 145],–,4 µM
NCCCC#Cc1ccc2c(c1)C(=O)N(CCC(=O)O)CC(=O)N2Cc1ccc(F)cc1F [Cmpd 97],0.13 µM,–
NCCCCC#Cc1ccc2c(c1)C(=O)N(CCC(=O)O)CC(=O)N2Cc1ccc([N+](=O)[O-])cc1 [Cmpd 87],0.031 µM,–
N=C(N)NCCCc1cccc(C(=O)NCCC(=O)O)c1 [Cmpd 158],–,2.3 µM
CN1C(=O)CN(CCC(=O)O)C(=O)c2cc3c(cc21)CCC(CCCCN)C3 (centres unmarked) [Cmpd 143],–,0.048 µM
N=C(N)NCC#Cc1cccc(C(=O)NCCC(=O)O)c1 [Cmpd 159],–,0.552 µM
"N=C(N)c1ccc(COc2ccc3c(c2)C(=O)N(CCC(=O)O)CCC3)cc1 [Cmpd 157, 2-(2-carboxyethyl)-8-(4-amidinobenzyloxy)-2,3,4,5-tetrahydro-1H-2-benzazepin-1-one trifluoroacetate]",–,0.137 µM
CN1C(=O)C2CCC(CC(=O)O)N2C(=O)c2cc(CCCNC(=N)N)ccc21 (centres unmarked) [Cmpd 18],> 100 µM,–
N=C(N)NCCCCCc1ccc2c(c1)C(=O)N(CCC(=O)O)CC(=O)N2Cc1ccc(C(=O)O)cc1 [Cmpd 133],–,0.016 µM
NCCCCC#Cc1ccc2c(c1)C(=O)N(CCC(=O)O)CC(=O)N2Cc1ccc(F)cc1F [Cmpd 99],0.027 µM,–
"N=C(N)NCCCCCc1ccc2c(c1)C(=O)N(CCC(=O)O)CC(=O)N2Cc1cccc(Oc2ccccc2)c1 [Cmpd 92, 1-(m-phenoxybenzyl)-4-(2-carboxyethyl)-7-(5-guanidinopentyl)-3,4-dihydro-1H-1,4-benzodiazepine-2,5-dione trifluoroacetate]",0.011 µM,–
NCCCCCc1ccc2c(c1)C(=O)N(CCC(=O)O)CC(=O)N2 [Cmpd 29],2.92 µM,–
"N=C(N)NCCCCCCc1ccc2c(c1)C(=O)N(CCC(=O)O)CC(=O)N2Cc1cccc(Oc2ccccc2)c1 [Cmpd 91, 1-(m-phenoxybenzyl)-4-(2-carboxyethyl)-7-(6-guanidinohexyl)-3,4-dihydro-1H-1,4-benzodiazepine-2,5-dione trifluoroacetate]",0.009 µM,–
CN1C(=O)CN(C(CC(=O)O)c2ccccc2)C(=O)c2cc(CCCCCCNC(=N)N)ccc21 (centres unmarked) [Cmpd 52],0.39 µM,–

# Other lines, results leading:
IC50 [1],IC50 [2],Structure (SMILES)
–,0.153 µM,CN1C(=O)CN(CCC(=O)O)C(=O)c2cc3cc(CCCCN)ccc3cc21 [Cmpd 139]
0.025 µM,–,N=C(N)NCCCCC#Cc1ccc2c(c1)C(=O)N(CCC(=O)O)CC(=O)N2Cc1ccc(F)cc1F [Cmpd 100]
0.466 µM,–,CN1C(=O)CN(CCC(=O)O)C(=O)c2cc(CCCNC(=N)N)ccc21 [Cmpd 4]
–,0.009 µM,"CN1C(=O)CN(CCC(=O)O)C(=O)c2cc3cc(C#CCNC(=N)N)ccc3cc21 [Cmpd 138, 1-Methyl-4-(carboxyethyl)-8-(3-guanidino-1-propynyl)-3,4-dihydro-1H-1,4-naphthodiazepine-2,5-dione]"
7 µM,–,CN1C(=O)CN(CCC(=O)O)C(=O)c2cc(C#CCN)ccc21 [Cmpd 5]
–,0.351 µM,"CN1C(=O)CN(CCC(=O)O)C(=O)c2cc3cc(C#CCN)ccc3cc21 [Cmpd 137, 1-methyl-4-(2-carboxyethyl)-8-(3-amino-1-propynyl)-3,4-dihydro 1H-1,4-napthodiazepine-2,4-dione trifluoracetate]"
10 µM,–,CN1C(=O)CN(CCC(=O)O)C(=O)c2cc(CCc3cccc(N)c3)ccc21 [Cmpd 47]
30 µM,–,CN1C(=O)CN(CCC(=O)O)C(=O)c2cc(C#Cc3ccc(C#N)cc3)ccc21 [Cmpd 57]
80 µM,–,CC1C(=O)N(C)c2ccc(C#CCCNC(=N)N)cc2C(=O)N1CCC(=O)O (centres unmarked) [Cmpd 26]
0.265 µM,–,CN1C(=O)CN(CCC(=O)O)C(=O)c2cc(CCc3ccc(CNC(=N)N)cc3)ccc21 [Cmpd 46]
5 µM,–,CN1C(=O)CN(CCC(=O)O)C(=O)c2cc(CCCCN)ccc21 [Cmpd 19]
25 µM,–,CN1C(=O)C(c2ccccc2)N(CCC(=O)O)C(=O)c2cc(C#CCNC(=N)N)ccc21 (centres unmarked) [Cmpd 14]
0.12 µM,–,CN1C(=O)CN(CCC(=O)O)C(=O)c2cc(CCCCCCNC(=N)N)ccc21 [Cmpd 40]
0.1 µM,–,"CN1C(=O)CN(CCC(=O)O)C(=O)c2cc(C#CCCCCN)ccc21 [Cmpd 41, 1-(methyl)-4-(2-carboxyethyl)-7-(6-amino-1-hexynyl)-3,4-dihydro-1H-1,4-benzodiazepine-2,5-dione trifluroacetate]"
–,0.068 µM,NCCCC#Cc1ccc2c(c1)C(=O)N(CCC(=O)O)CC(=O)N2Cc1cccc(NC(=O)CN)c1 [Cmpd 106]
0.024 µM,–,N=C(N)NCCCC#Cc1ccc2c(c1)C(=O)N(CCC(=O)O)CC(=O)N2Cc1ccc(F)cc1F [Cmpd 98]
